IC50 data for 31 compounds are collected here from US20260035387A1 (BIOGEN MA INC., priority 2022, published 2026).

The subject of this test is mutant Huntington (HTT) protein. In words: HTT Mutant HTRF iPSC assay (mHTT protein lowering). The class given is cell-based. As to conditions: human iPSC derived from a HTT patient with a poly-Q49 mutation. On the technique in general: In TR-FRET formats the signal depends on donor and acceptor labels being close together.
Broadly, the IC50 is the concentration that gives 50% inhibition. A lower IC50 goes with greater potency. The compound `Cc1cn2nc(NC(=O)c3cc4ccc(N5CC[C@@H](N(C)C)C5)nc4s3)cc(C)c2n1` [Compound 56, (R)-6-(3-(dimethylamino)pyrrolidin-1-yl)-N-(2,8-dimethylimidazo[1,2-b]pyridazin-6-yl)thieno[2,3-b]pyridine-2-carboxamide] yielded an IC50 of 1 to 9 µM. In turn, `Cc1cn2cc(NC(=O)c3cc4ccc(N5CCCC5)nc4s3)nc(C)c2n1` [Compound 57, N-(2,8-dimethylimidazo[1,2-a]pyrazin-6-yl)-6-(pyrrolidin-1-yl)thieno[2,3-b]pyridine-2-carboxamide] showed an IC50 of 1 to 9 µM. Under `CN(C)C1CCN(c2ccc3cc(C(=O)Nc4ccc5c(c4)n(C)c(=O)n5C)sc3n2)C1` (stereo not shown) [Compound 58, N-(1,3-dimethyl-2-oxo-2,3-dihydro-1H-benzo[d]imidazol-5-yl)-6-(3-(dimethylamino)pyrrolidin-1-yl)thieno[2,3-b]pyridine-2-carboxamide] stands 1 to 9 µM. `CN(C)C1CCN(c2ccc3cc(C(=O)Nc4ccc5sc(=O)n(C)c5c4)sc3n2)C1` (stereo not shown) [Compound 59, 6-(3-(dimethylamino)pyrrolidin-1-yl)-N-(3-methyl-2-oxo-2,3-dihydrobenzo[d]thiazol-5-yl)thieno[2,3-b]pyridine-2-carboxamide] showed an IC50 of 1 to 9 µM. `CN(C)C1CCN(c2ccc3cc(C(=O)Nc4cnn5c(C(F)(F)F)ccnc45)sc3n2)C1` (stereo not shown) [Compound 60, 6-(3-(dimethylamino)pyrrolidin-1-yl)-N-(7-(trifluoromethyl)pyrazolo[1,5-a]pyrimidin-3-yl)thieno[2,3-b]pyridine-2-carboxamide] came in with an IC50 of 1 to 9 µM. Compound `CC(C)n1ncc2ccc(NC(=O)c3cc4ccc(N5CCC(N(C)C)C5)nc4s3)cc21` (stereo not shown) [Compound 61, 6-(3-(dimethylamino)pyrrolidin-1-yl)-N-(1-isopropyl-1H-indazol-6-yl)thieno[2,3-b]pyridine-2-carboxamide] gave an IC50 of 1 to 9 µM. Turning to `CN(C)C1CCN(c2ccc3cc(C(=O)Nc4ccc5cncn5c4)sc3n2)C1` (stereo not shown) [Compound 62, 6-(3-(dimethylamino)pyrrolidin-1-yl)-N-(imidazo[1,5-a]pyridin-6-yl)thieno[2,3-b]pyridine-2-carboxamide], the IC50 is 1 to 9 µM. Under `CN(C)C1CCN(c2ccc3cc(C(=O)Nc4ccc5nsnc5c4)sc3n2)C1` (stereo not shown) [Compound 63, N-(benzo[c][1,2,5]thiadiazol-5-yl)-6-(3-(dimethylamino)pyrrolidin-1-yl)thieno[2,3-b]pyridine-2-carboxamide] stands 1 to 9 µM; under `CN(C)C1CCN(c2ccc3cc(C(=O)Nc4nc5cnccn5n4)sc3n2)C1` (stereo not shown) [Compound 64, N-([1,2,4]triazolo[1,5-a]pyrazin-2-yl)-6-(3-(dimethylamino)pyrrolidin-1-yl)thieno[2,3-b]pyridine-2-carboxamide], 1 to 9 µM; under `CN(C)C1CCN(c2ccc3cc(C(=O)Nc4cc(F)c5nn(C)cc5c4)sc3n2)C1` (stereo not shown) [Compound 65, 6-(3-(dimethylamino)pyrrolidin-1-yl)-N-(7-fluoro-2-methyl-2H-indazol-5-yl)thieno[2,3-b]pyridine-2-carboxamide], less than 0.1 µM. `Cc1cn2cc(NC(=O)c3cc4ccc(N5C[C@@H]6CCN(C)[C@@H]6C5)nc4s3)cc(F)c2n1` [Compound 66, 6-[(3aS,6aS)-1-methyl-2,3,3a,4,6,6a-hexahydropyrrolo[3,4-b]pyrrol-5-yl]-N-(8-fluoro-2-methyl-imidazo[1,2-a]pyridin-6-yl)thieno[2,3-b]pyridine-2-carboxamide] registered an IC50 of less than 0.1 µM. Compound `Cc1cn2cc(NC(=O)c3cc4ccc(N5C[C@@H](C)N(C)[C@@H](C)C5)nc4s3)cc(F)c2n1` [Compound 69, N-(8-fluoro-2-methylimidazo[1,2-a]pyridin-6-yl)-6-((3R,5S)-3,4,5-trimethylpiperazin-1-yl)thieno[2,3-b]pyridine-2-carboxamide] yielded an IC50 of less than 0.1 µM. Turning to `Cc1cn2cc(NC(=O)c3cc4ccc(N5C[C@H]6CCN(C)[C@H]6C5)nc4s3)cc(F)c2n1` [Compound 70, N-(8-fluoro-2-methylimidazo[1,2-a]pyridin-6-yl)-6-((3aR,6aR)-1-methylhexahydropyrrolo[3,4-b]pyrrol-5(1H)-yl)thieno[2,3-b]pyridine-2-carboxamide], the IC50 is less than 0.1 µM. The value for `Cc1nc2c(F)cc(NC(=O)c3cc4ccc(N5CCC(N(C)C)C5)nc4s3)cc2o1` (stereo not shown) [Compound 71, 6-(3-(dimethylamino)pyrrolidin-1-yl)-N-(4-fluoro-2-methylbenzo[d]oxazol-6-yl)thieno[2,3-b]pyridine-2-carboxamide] was less than 0.1 µM; that for `COc1cc(NC(=O)c2cc3ccc(N4CCC(N(C)C)C4)nc3s2)cn2cc(C)nc12` (stereo not shown) [Compound 72, 6-(3-(dimethylamino)pyrrolidin-1-yl)-N-(8-methoxy-2-methylimidazo[1,2-a]pyridin-6-yl)thieno[2,3-b]pyridine-2-carboxamide] was 0.1 to 1 µM; that for `Cc1cn2cc(NC(=O)c3cc4ccc(N5CCC(N(C)C)C5)nc4s3)cc(C)c2n1` (stereo not shown) [Compound 73, 6-(3-(dimethylamino)pyrrolidin-1-yl)-N-(2,8-dimethylimidazo[1,2-a]pyridin-6-yl)thieno[2,3-b]pyridine-2-carboxamide] was 1 to 9 µM. Turning to `COc1cc2nn(C)cc2cc1NC(=O)c1cc2ccc(N3CCC(N(C)C)C3)nc2s1` (stereo not shown) [Compound 74, 6-(3-(dimethylamino)pyrrolidin-1-yl)-N-(6-methoxy-2-methyl-2H-indazol-5-yl)thieno[2,3-b]pyridine-2-carboxamide], the IC50 lay in the range of 0.1 to 1 µM. `Cc1cn2cc(NC(=O)c3cc4ccc(N5CCNCC5)nc4s3)cc(F)c2n1` [Compound 75, N-(8-fluoro-2-methylimidazo[1,2-a]pyridin-6-yl)-6-(piperazin-1-yl)thieno[2,3-b]pyridine-2-carboxamide] came in with an IC50 of less than 0.1 µM. The value for `Cc1cn2cc(NC(=O)c3cc4ccc(N5CC6(CCCN(C)C6)C5)nc4s3)cc(F)c2n1` [Compound 76, N-(8-fluoro-2-methylimidazo[1,2-a]pyridin-6-yl)-6-(6-methyl-2,6-diazaspiro[3.5]nonan-2-yl)thieno[2,3-b]pyridine-2-carboxamide] was 0.1 to 1 µM; that for `Cc1cn2cc(NC(=O)c3cc4ccc(N5CCN(C)CC5)nc4s3)cc(F)c2n1` [Compound 77, N-(8-fluoro-2-methylimidazo[1,2-a]pyridin-6-yl)-6-(4-methylpiperazin-1-yl)thieno[2,3-b]pyridine-2-carboxamide] was less than 0.1 µM. The value for `Cc1cn2cc(NC(=O)c3cc4ccc(N5CCC(C6(N)CC6)C5)nc4s3)cc(F)c2n1` (stereo not shown) [Compound 78, 6-(3-(1-aminocyclopropyl)pyrrolidin-1-yl)-N-(8-fluoro-2-methylimidazo[1,2-a]pyridin-6-yl)thieno[2,3-b]pyridine-2-carboxamide] was less than 0.1 µM; that for `Cc1cn2cc(NC(=O)c3cc4ccc(N5CCN(C6CC6)CC5)nc4s3)cc(F)c2n1` [Compound 79, 6-(4-cyclopropylpiperazin-1-yl)-N-(8-fluoro-2-methylimidazo[1,2-a]pyridin-6-yl)thieno[2,3-b]pyridine-2-carboxamide] was less than 0.1 µM. `Cc1cn2cc(NC(=O)c3cc4ccc(N5C[C@H]6CNC[C@H]6C5)nc4s3)cc(F)c2n1` [Compound 80, N-(8-fluoro-2-methylimidazo[1,2-a]pyridin-6-yl)-6-((3aR,6aS)-hexahydropyrrolo[3,4-c]pyrrol-2(1H)-yl)thieno[2,3-b]pyridine-2-carboxamide] gave an IC50 of 0.1 to 1 µM. Compound `Cc1cn2cc(NC(=O)c3cc4ccc(C5=CC6CCC(C5)N6)nc4s3)cc(F)c2n1` (stereo not shown) [Compound 83, 6-(8-azabicyclo[3.2.1]oct-2-en-3-yl)-N-(8-fluoro-2-methylimidazo[1,2-a]pyridin-6-yl)thieno[2,3-b]pyridine-2-carboxamide] showed an IC50 of less than 0.1 µM. The value for `Cc1cn2cc(NC(=O)c3cc4ccc(C5=CCCNC5)nc4s3)cc(F)c2n1` [Compound 84, N-(8-fluoro-2-methyl-imidazo[1,2-a]pyridin-6-yl)-6-(1,2,3,6-tetrahydropyridin-5-yl)thieno[2,3-b]pyridine-2-carboxamide] was less than 0.1 µM; that for `Cc1cn2cc(NC(=O)c3cc4ccc(C5CCNCC5)nc4s3)cc(F)c2n1` [Compound 85, N-(8-fluoro-2-methylimidazo[1,2-a]pyridin-6-yl)-6-(piperidin-4-yl)thieno[2,3-b]pyridine-2-carboxamide] was less than 0.1 µM; that for `Cc1cn2cc(NC(=O)c3cc4ncc(N5CCC(N(C)C)C5)cc4o3)cc(F)c2n1` (stereo not shown) [Compound 86, 6-[3-(dimethylamino)pyrrolidin-1-yl]-N-(8-fluoro-2-methyl-imidazo[1,2-a]pyridin-6-yl)furo[3,2-b]pyridine-2-carboxamide] was 0.1 to 1 µM. The compound `COc1cc2nn(C)cc2cc1NC(=O)c1nc2ccc(N3CCC4(CCCN4C)C3)nc2s1` (stereo not shown) [Compound 87, N-(6-methoxy-2-methyl-2H-indazol-5-yl)-5-(1-methyl-1,7-diazaspiro[4.4]nonan-7-yl)thiazolo[5,4-b]pyridine-2-carboxamide] registered an IC50 of less than 0.1 µM. The compound `COc1cc2nn(C)cc2cc1NC(=O)c1nc2ccc(N3CCC4(CN(C)C4)C3)nc2s1` [Compound 88, N-(6-methoxy-2-methyl-2H-indazol-5-yl)-5-(2-methyl-2,6-diazaspiro[3.4]octan-6-yl)thiazolo[5,4-b]pyridine-2-carboxamide] showed an IC50 of less than 0.1 µM. Under `Cc1cn2cc(NC(=O)c3nc4ccc(N5CC[C@@H](N(C)C)C5)nc4s3)cc(F)c2n1` [Compound 89, 5-[(3R)-3-(dimethylamino)pyrrolidin-1-yl]-N-(8-fluoro-2-methyl-imidazo[1,2-a]pyridin-6-yl)thiazolo[5,4-b]pyridine-2-carboxamide] stands less than 0.1 µM; under `COc1cc2nn(C)cc2cc1NC(=O)c1nc2ccc(N3C[C@@H]4CN(C)C[C@@H]43)nc2s1` [Compound 90, N-(6-methoxy-2-methyl-2H-indazol-5-yl)-5-((1S,5R)-3-methyl-3,6-diazabicyclo[3.2.0]heptan-6-yl)thiazolo[5,4-b]pyridine-2-carboxamide], less than 0.1 µM.
